Source: US9730445B2, “Herbicidal compositions comprising 4-amino-3-chloro-5-fluoro-6-(4-chloro-2-fluoro-3-methoxyphenyl) pyridine-2-carboxylic acid or a derivative thereof and fungicides” (DOW AGROSCIENCES LLC, priority 2013, dated 2017)

Test system: FIMMI
Assay: In-water applied weed control, transplanted paddy rice (greenhouse)
Assay type: in vivo, Fimbristylis miliacea (L.) Vahl (globe fringerush)
Experimental: Weed seeds or nutlets of the desired test plant species were planted in puddled soil (mud) prepared by mixing a shredded, non-sterilized mineral soil (50.5 percent silt, 25.5 percent clay, and 24 percent sand, with a pH of about 7.6 and an organic matter content of about 2.9 percent) and water at a 1:1 volumetric ratio. The prepared mud was dispensed in 365 mL aliquots into 16-ounce (oz.) non-perforated plastic pots with a surface area of 86.59 square centimeters (cm^2) leaving a headspace of 3 centimeters (cm) in each pot. Rice seeds were planted in Sun Gro MetroMix® 306 planting mixture, which typically has a pH of 6.0 to 6.8 and an organic matter content of about 30 percent, in plastic plug trays. Seedlings at the second or third leaf stage of growth were transplanted into 860 mL of mud contained in 32-oz. non-perforated plastic pots with a surface area of 86.59 cm^2 4 days prior to herbicide application. The paddy was created by filling the headspace of the pots with 2.5 to 3 cm of water. When required to ensure good germination and healthy plants, a fungicide treatment and/or other chemical or physical treatment was applied. The plants were grown for 4-22 days in a greenhouse with an approximate 14 hour (h) photoperiod which was maintained at about 29° C. during the day and about 26° C. during the night. Nutrients were added as Osmocote® (17:6:10, N:P:K+minor nutrients) at 2 g per cup. Water was added on a regular basis to maintain the paddy flood, and supplemental lighting was provided with overhead metal halide 1000-Watt lamps as necessary. The plants were employed for testing when they reached the first through fourth true leaf stage. […]
Treatment requirements for each compound or fungicidal component were calculated based upon the rates being tested, the concentration of active ingredient or acid equivalent in the formulation, an application volume of 2 mL per component per pot, and an application area of 86.59 cm^2 per pot.
For formulated compounds, a measured amount was placed in an individual 100 or 200 mL glass vial and was dissolved in a volume of 1.25% (v/v) Agri-Dex® crop oil concentrate to obtain application solutions. […]
The treated plants and control plants were placed in a greenhouse as described above and water was added as needed to maintain a paddy flood. After approximately 3 weeks the condition of the test plants as compared with that of the untreated plants was determined visually and scored on a scale of 0 to 100 percent where 0 corresponds to no injury or growth inhibition and 100 corresponds to complete kill. […]

## COc1c(Cl)ccc(-c2nc(C(=O)OCc3ccccc3)c(Cl)c(N)c2F)c1F [Compound A Benzyl Ester]
Compound A Benzyl Ester 4.38 g ae/ha
  Visual Weed Control (%) - 22 DAA FIMMI Obs: 50%
Compound A Benzyl Ester 8.75 g ae/ha
  Visual Weed Control (%) - 22 DAA FIMMI Obs: 80%
Compound A Benzyl Ester 17.5 g ae/ha
  Visual Weed Control (%) - 22 DAA FIMMI Obs: 100%
